Data taken from doi:10.1101/2024.07.10.602890, “H105A peptide eye drops promote photoreceptor survival in murine and human models of retinal degeneration” (bioRxiv, 2024).
Ends that are not written are not given here.

Experiment: Stability of peptide H105A against temperature (Table S2)
Assay type: physicochemical
Procedure: Lyophilized peptides were dissolved in sterile HBSS at 1 mg/ml and stored at −20 °C. Before the peptides were used, the peptide solution was brought to room temperature and subjected to centrifugation (Eppendorf, Centrifuge 5430R) at 20,800 g for 10 min at 4°C to clear and separate particulate material. In case a precipitate was found, the pH of the solution was adjusted to neutral pH with either NaOH or HCl and all peptides were soluble. The concentration of peptide solutions was determined using spectrophotometry (NanoDrop, Thermo Fisher Scientific).
Table S2. Stability of 17-mer[H105A] peptide.
Concentration (mg/mL) Store Concentration (mg/mL)
*FT, Freeze and thaw cycles daily

Measured: Concentration Day1

QRTESIIARALYYDLIS [H105A]
1040 µg/mL: sample 1, before storage at RT, peptide solution, spectrophotometry (NanoDrop) | sample 2, before storage at 4°C | sample 3, before storage at -20°C | sample 4, before storage at -20°C [FT]
